Results published in US20250288514A1, “SKIN-SOOTHING COMPOSITION” (Amorepacific Corporation, priority 2024, published 2025).

Assays:
claudin-1 protein = assay: Skin cohesion evaluation: claudin-1 protein expression in artificial skin treated with inflammation cocktail; format: cell-based; details: inflammation cocktail IFN-γ (20 ng/ml)+TNF-α (20 ng/ml), compositions at 50 ppm, FIG. 2
filaggrin protein = assay: Moisturizing factor evaluation: filaggrin protein expression in artificial skin treated with inflammation cocktail; format: cell-based; details: inflammation cocktail IFN-γ (20 ng/ml)+TNF-α (20 ng/ml), compositions at 50 ppm, FIG. 3
[1] = Dilution of stock in medium (state of the composition); format: physicochemical; details: 50 ppm in medium, from stock in purified water or DMSO
Excerpt: Because PEA was suspended at the 50 ppm, this composition was not used for an experiment.

mast cell degranulation = details: stated as known; cited from earlier work
[2] = Cell toxicity of the composition; details: 50 ppm
Procedure: A composition was prepared by adding 1 g of (−)-epigallocatechin gallate 5 (EGCG) to 100 g of purified water or dimethyl sulfoxide (DMSO) to prepare a stock and diluting the stock to 50 ppm.

PGE2 (Prostaglandin E2) = assay: Skin redness evaluation: amount of PGE2 in artificial skin treated with inflammatory factor; format: cell-based; details: TNF-α+IFN-γ (20 ng/ml), FIG. 4
Excerpt: PGE2 is a factor that induces vasodilation and causes skin redness, wherein the smaller amount of PGE2, the less vasodilation induction, thereby suppressing the skin redness, and the skin redness evaluation results are shown in FIG. 4.

Molecule | expression level of claudin-1 protein (claudin-1 protein) | expression level of filaggrin protein (filaggrin protein) | also measured
(−)-epigallocatechin gallate [Comparative Example 7] | not recovered from the decrease in the protein expression of the claudin-1 protein | not recovered from the decrease of the protein expression | –
CCCCCCCCCCCCCCCC(=O)NCCO [PEA, palmitoylethanolamide] | – | – | state on dilution in medium [1]: suspended; effect of suppressing the mast cell degranulation (mast cell degranulation): no effect of suppressing the mast cell degranulation
CCCCCCCCCCCCCCCC(=O)NCCO [Comparative Example 4, palmitoylethanolamide] | not recovered from the decrease in the protein expression of the claudin-1 protein | not recovered from the decrease of the protein expression | –
(−)-epigallocatechin gallate [EGCG] | – | – | cell toxicity [2]: cell toxicity
Oc1cc(O)c2c(c1)O[C@H](c1ccc(O)c(O)c1)[C@H](O)C2 [Example 3, epicatechin] | recovered from the decrease in the protein expression of the claudin-1 protein | recovered from the decrease of the protein expression | amount of PGE2 (PGE2 (Prostaglandin E2)): the amount of PGE2 was suppressed
